Data from ChEMBL document CHEMBL4000203, “Green synthesis and anticancer potential of chalcone linked-1,2,3-triazoles” (Eur J Med Chem, 2017).
Activity calls are given as the source filed them. No cut-off for these calls is given here.

Columns and labels:
MIA PaCa-2 [1] = assay: Cytotoxicity against human MIAPaCa2 cells assessed as growth inhibition at 10 uM measured after 48 hrs by MTT assay relative to control; assay type: functional; conditions: for inhibition of growth at 10 µM: MIA PaCa-2, 48 h, read-out: GI
MIA PaCa-2 [2] = assay: Cytotoxicity against human MIAPaCa2 cells measured after 48 hrs by MTT assay; assay type: functional, cell-based; conditions: MIA PaCa-2, 48 h
[3] = Cytotoxicity against human FR2 cells assessed as growth inhibition at 10 uM measured after 48 hrs by MTT assay relative to control; assay type: cell-based; conditions: for inhibition at 48 h, 10 µM: FR2 cells, read-out: GI; for growth inhibition (GI): fr2, 48 h, 10 µM
A549 [4] = assay: Cytotoxicity against human A549 cells assessed as growth inhibition at 10 uM measured after 48 hrs by MTT assay relative to control; assay type: functional; conditions: for inhibition of growth at 10 µM: A549, 48 h, read-out: GI
[5] = Cytotoxicity against human FR2 cells measured after 48 hrs by MTT assay; assay type: cell-based; conditions: FR2, 48 h
MCF7 [6] = assay: Cytotoxicity against human MCF7 cells assessed as growth inhibition at 10 uM measured after 48 hrs by MTT assay relative to control; assay type: functional; conditions: for inhibition of growth at 10 µM: MCF7, 48 h, read-out: GI
MCF7 [7] = assay: Cytotoxicity against human MCF7 cells measured after 48 hrs by MTT assay; assay type: functional, cell-based; conditions: MCF7, 48 h
HepG2 [8] = assay: Cytotoxicity against human HepG2 cells assessed as growth inhibition at 10 uM measured after 48 hrs by MTT assay relative to control; assay type: functional; conditions: for inhibition of growth at 10 µM: HepG2, 48 h, read-out: GI
HepG2 [9] = assay: Cytotoxicity against human HepG2 cells measured after 48 hrs by MTT assay; assay type: functional, cell-based; conditions: HepG2, 48 h
A549 [10] = assay: Cytotoxicity against human A549 cells measured after 48 hrs by MTT assay; assay type: functional, cell-based; conditions: A549, 48 h

SMILES | inhibition of growth at 10 µM (MIA PaCa-2 [1]) | IC50 (MIA PaCa-2 [2]) | inhibition at 48 h, 10 µM [3] | inhibition of growth at 10 µM (A549 [4]) | IC50 [5] | inhibition of growth at 10 µM (MCF7 [6]) | IC50 (MCF7 [7]) | inhibition of growth at 10 µM (HepG2 [8]) | IC50 (HepG2 [9]) | IC50 (A549 [10]) | growth inhibition (GI) (MIA PaCa-2 [1]) | growth inhibition (GI) [3] | growth inhibition (GI) (A549 [4]) | growth inhibition (GI) (MCF7 [6]) | growth inhibition (GI) (HepG2 [8])
COc1ccc(C(=O)/C=C/c2ccc(OCc3cn(Cc4ccc(Br)cc4)nn3)cc2)cc1 | 56% | 8 µM | 2% | 50% | > 100 µM | 53% | 9 µM | 59% | 8 µM | 10 µM | – | – | – | – | –
O=C(/C=C/c1ccc(OCc2cn(Cc3ccccc3F)nn2)cc1)c1ccc(Br)cc1 | 28% | – | 8% | 38% | – | 38% | – | 29% | – | – | – | – | – | – | –
COc1ccc(C(=O)/C=C/c2ccc(OCc3cn(Cc4ccccc4Br)nn3)cc2)cc1 | 50% | 10 µM | 7% | 52% | > 100 µM | 60% | 7 µM | 44% | 20 µM | 10 µM | – | – | – | – | –
O=C(/C=C/c1ccc(OCc2cn(Cc3cccc(F)c3)nn2)cc1)c1ccc([N+](=O)[O-])cc1 | 32% | – | 5% | 33% | – | 30% | – | 43% | – | – | – | – | – | – | –
Oc1cccc(-c2nc(N3CCOCC3)c3oc4ncccc4c3n2)c1 [PI-103] | 93% | 6 µM | 25% | 89% | > 50 µM | 97% | 3 µM | 65% | 8 µM | 4 µM | – | – | – | – | –
COc1ccc(C(=O)/C=C/c2ccc(OCc3cn(Cc4ccccc4F)nn3)cc2)cc1 | 19% | – | 11% | 21% | – | 32% | – | 33% | – | – | – | – | – | – | –
COc1ccc(C(=O)/C=C/c2ccc(OCc3cn(Cc4cccc(Br)c4)nn3)cc2)cc1 | 50% | 10 µM | 3% | 47% | > 100 µM | 45% | 20 µM | 27% | 60 µM | 15 µM | – | – | – | – | –
C#CCOc1ccc(/C=C/C(=O)c2ccc(OC)cc2)cc1 | 32% | – | 8% | 27% | – | 32% | – | 25% | – | – | – | – | – | – | –
O=C(/C=C/c1ccc(OCc2cn(Cc3ccc(F)cc3)nn2)cc1)c1ccc([N+](=O)[O-])cc1 | 44% | – | 8% | 34% | – | 38% | – | 25% | – | – | – | – | – | – | –
O=C(/C=C/c1ccc(OCc2cn(Cc3ccccc3F)nn2)cc1)c1ccc([N+](=O)[O-])cc1 | 22% | – | 12% | 43% | – | 33% | – | 22% | – | – | – | – | – | – | –
O=C(/C=C/c1ccc(OCc2cn(Cc3ccc(F)cc3)nn2)cc1)c1ccc(Br)cc1 | 32% | – | 7% | 43% | – | 37% | – | 22% | – | – | – | – | – | – | –
O=C(/C=C/c1ccc(OCc2cn(Cc3ccccc3Br)nn2)cc1)c1ccc([N+](=O)[O-])cc1 | 34% | – | 2% | 42% | – | 43% | – | 32% | – | – | – | – | – | – | –
O=C(/C=C/c1ccc(OCc2cn(Cc3ccccc3)nn2)cc1)c1ccc([N+](=O)[O-])cc1 | – | – | – | – | – | – | – | – | – | – | inactive | Non-Toxic | inactive | inactive | inactive
O=C(/C=C/c1ccc(OCc2cn(Cc3ccccc3)nn2)cc1)c1ccc(Br)cc1 | 44% | – | 7% | 34% | – | 34% | – | 22% | – | – | – | – | – | – | –
COc1ccc(C(=O)/C=C/c2ccc(OCc3cn(Cc4ccc(F)cc4)nn3)cc2)cc1 | 6% | – | – | 33% | – | 15% | – | 21% | – | – | – | Non-Toxic | – | – | –
COc1ccc(C(=O)/C=C/c2ccc(OCc3cn(Cc4cccc(F)c4)nn3)cc2)cc1 | 48% | 15 µM | 12% | 56% | > 100 µM | 41% | 55 µM | 22% | 85 µM | 9 µM | – | – | – | – | –
O=C(/C=C/c1ccc(OCc2cn(Cc3cccc(Br)c3)nn2)cc1)c1ccc(Br)cc1 | 43% | – | 9% | 44% | – | 36% | – | 25% | – | – | – | – | – | – | –
C#CCOc1ccc(/C=C/C(=O)c2ccc([N+](=O)[O-])cc2)cc1 | 42% | – | 2% | 33% | – | 44% | – | 27% | – | – | – | – | – | – | –
O=C(/C=C/c1ccc(OCc2cn(Cc3ccc(Br)cc3)nn2)cc1)c1ccc(Br)cc1 | 29% | – | 11% | 27% | – | 23% | – | 22% | – | – | – | – | – | – | –
O=C(/C=C/c1ccc(OCc2cn(Cc3cccc(F)c3)nn2)cc1)c1ccc(Br)cc1 | 34% | – | 4% | 37% | – | 42% | – | 34% | – | – | – | – | – | – | –
C#CCOc1ccc(/C=C/C(=O)c2ccc(Br)cc2)cc1 | 34% | – | 9% | 34% | – | 45% | – | 22% | – | – | – | – | – | – | –
O=C(/C=C/c1ccc(OCc2cn(Cc3ccc(Br)cc3)nn2)cc1)c1ccc([N+](=O)[O-])cc1 | 17% | – | 10% | 18% | – | 18% | – | 21% | – | – | – | – | – | – | –
O=C(/C=C/c1ccc(OCc2cn(Cc3cccc(Br)c3)nn2)cc1)c1ccc([N+](=O)[O-])cc1 | 21% | – | 4% | 28% | – | 12% | – | 13% | – | – | – | – | – | – | –
O=C(/C=C/c1ccc(OCc2cn(Cc3ccccc3Br)nn2)cc1)c1ccc(Br)cc1 | 43% | – | 11% | 44% | – | 44% | – | 34% | – | – | – | – | – | – | –
